Measured values: patent US8951563B2, “Antibiotic drug delivery and potentiation” (Technion Research & Development Foundation Limited, priority 2009, dated 2015)

Columns and labels:
Assay type in all cases: cell-based
E. coli 14384 = assay: Antibiotic MIC / chemo-sensitization checkerboard with OAK, E. coli 14384; conditions: for FIC: antibiotic combined with C12K-7α8; for MIC: Escherichia coli
Method: (§1) Bacteria were grown overnight in LB growth medium and diluted 10,000-fold in same medium.
(§2) Inhibition of proliferation was determined by optical density measurements (620 nm) after incubation overnight at 37° C.
(§3) Synergistic effect of the combinations was assessed by determination of the fractional inhibitory concentration (FIC) where FIC=(MIC OAK in combination with antibiotic)/(MIC OAK alone)+(MIC antibiotic in combination)/(MIC antibiotic alone). Synergy was determined for FIC 0.5.

[1] = test system: E. coli N281, ribosomal mutation; assay: FIC index with sub-MIC OAK, E. coli N281; conditions: sub-MIC C12K-7α8
Method: as §1, §3

E. coli U-16329 = assay: Antibiotic MIC / chemo-sensitization checkerboard with OAK, E. coli U-16329; conditions: for MIC: Escherichia coli, U16329, OAK: None; for FIC: antibiotic combined with C12K-7α8
Method: as §1, §2, §3

[2] = test system: E. coli AG100A, ΔacrAB (efflux−); conditions: sub-MIC C12K-7α8
Method: as §1, §3

[3] = test system: E. coli AG100, wild type (efflux+); conditions: sub-MIC C12K-7α8
Method: as §1, §3

E. coli U-16327 = assay: Antibiotic MIC / chemo-sensitization checkerboard with OAK, E. coli U-16327; conditions: for MIC: Escherichia coli, U16327, OAK: None; for FIC: antibiotic combined with C12K-7α8
Method: as §1, §2, §3

E. coli 14182 = assay: Antibiotic MIC / chemo-sensitization checkerboard with OAK, E. coli 14182; conditions: for FIC: antibiotic combined with C12K-7α8; for MIC: Escherichia coli, OAK: None
Method: as §1, §2, §3

[4] = test system: E. coli AB301, wild type (efflux+); assay: FIC index with sub-MIC OAK, E. coli AB301; conditions: sub-MIC C12K-7α8
Method: as §1, §3

Row | Compound | Antibiotic MIC in presence of OAK (E. coli 14384; +1.7 μg/ml C12K-7α8 (¼ MIC)) [µg/mL] | Antibiotic MIC in presence of OAK (E. coli 14384; +3.5 μg/ml C12K-7α8 (½ MIC)) [µg/mL] | Antibiotic MIC in presence of OAK (E. coli 14384; +[…] C12K-7α8 (⅓ MIC)) [µg/mL] | FIC (E. coli 14384) | Antibiotic MIC in presence of OAK (E. coli U-16329; +3.5 μg/ml C12K-7α8 (½ MIC)) [µg/mL] | Antibiotic MIC in presence of OAK (E. coli U-16329; +[…] C12K-7α8 (⅓ MIC)) [µg/mL] | MIC (E. coli U-16329) [µg/mL] | FIC (E. coli U-16329) | FIC [2] | FIC [3] | Antibiotic MIC in presence of OAK (E. coli U-16327; +3.5 μg/ml C12K-7α8 (½ MIC)) [µg/mL] | Antibiotic MIC in presence of OAK (E. coli U-16327; +[…] C12K-7α8 (⅓ MIC)) [µg/mL] | MIC (E. coli U-16327) [µg/mL] | FIC (E. coli U-16327) | Antibiotic MIC in presence of OAK (E. coli 14182; +1.7 μg/ml C12K-7α8 (¼ MIC)) [µg/mL] | Antibiotic MIC in presence of OAK (E. coli 14182; +3.5 μg/ml C12K-7α8 (½ MIC)) [µg/mL] | Antibiotic MIC in presence of OAK (E. coli 14182; +[…] C12K-7α8 (⅓ MIC)) [µg/mL] | FIC (E. coli 14182) | MIC (E. coli 14384; OAK: None) [µg/mL] | Antibiotic MIC in presence of OAK (E. coli U-16327; +1.7 μg/ml C12K-7α8 (¼ MIC)) [µg/mL] | further results
1 | CC[C@H]1OC(=O)[C@H](C)[C@@H](O[C@H]2C[C@@](C)(OC)[C@@H](O)[C@H](C)O2)[C@H](C)[C@@H](O[C@@H]2O[C@H](C)C[C@H](N(C)C)[C@H]2O)[C@](C)(O)C[C@@H](C)C(=O)[C@H](C)[C@@H](O)[C@]1(C)O [Erythromycin, erythromycin] | 64 | 8 | 16 | 0.39 | 16 | 64 | 256 | 0.56 | 0.86 | 0.46 | 16 | 64 | 512 | 0.46 | 32 | 4 | 16 | 0.46 | – | – | FIC [1]: 1.0; FIC [4]: 0.56
2 | CCN1CCN(C(=O)N[C@@H](C(=O)N[C@@H]2C(=O)N3[C@@H]2SC(C)(C)[C@@H]3C(=O)O)c2ccccc2)C(=O)C1=O [Piperacillin, piperacillin] | 256 to 512 | 128 | 256 to 512 | 0.63 | 64 | 128 | 256 | 0.75 | – | 0.75 | 64 | 128 to 256 | 256 | 0.63 | >512 | 64 | >512 | 0.63 | 256 to 512 | 256 | Antibiotic MIC in presence of OAK (E. coli U-16329; +1.7 μg/ml C12K-7α8 (¼ MIC)): 128 to 256 µg/mL; MIC (E. coli 14182): 512 µg/mL
3 | Cc1onc(-c2ccccc2)c1C(=O)N[C@@H]1C(=O)N2[C@@H]1SC(C)(C)[C@@H]2C(=O)O [Oxacillin, oxacillin] | >512 | >512 | >512 | – | 512 | >512 | > 512 | – | 0.75 | 0.5 | 512 | >512 | > 512 | – | >512 | >512 | >512 | – | > 512 | >512 | Antibiotic MIC in presence of OAK (E. coli U-16329; +1.7 μg/ml C12K-7α8 (¼ MIC)): >512 µg/mL; MIC (E. coli 14182): > 512 µg/mL
4 | CC1(C)S[C@@H]2[C@H](NC(=O)Cc3ccccc3)C(=O)N2[C@H]1C(=O)O [Penicillin G, penicillin G] | >512 | >512 | >512 | – | 128 to 256 | 256 | 256 | 1 | 1.0 | 0.58 | 512 | >512 | > 512 | – | >512 | >512 | >512 | – | > 512 | >512 | Antibiotic MIC in presence of OAK (E. coli U-16329; +1.7 μg/ml C12K-7α8 (¼ MIC)): 256 µg/mL; MIC (E. coli 14182): > 512 µg/mL
5 | gentamicin [Gentamycin] | 4 | 2 | 2 to 4 | 1 | – | – | – | – | 1.0 | 1.0 | 1 to 2 | 2 | – | 0.75 | – | 64 to 128 | – | 1 | – | 4 | Antibiotic MIC (E. coli 14384; OAK: None): 4 µg/mL; Antibiotic MIC (E. coli U-16327; OAK: None): 4 µg/mL
6 | CC[C@H]1OC(=O)[C@H](C)[C@@H](O[C@H]2C[C@@](C)(OC)[C@@H](O)[C@H](C)O2)[C@H](C)[C@@H](O[C@@H]2O[C@H](C)C[C@H](N(C)C)[C@H]2O)[C@](C)(OC)C[C@@H](C)C(=O)[C@H](C)[C@@H](O)[C@]1(C)O [Clarithromycin, clarithromycin] | – | – | – | – | – | – | 128 | – | 0.75 | – | – | – | 128 | – | – | – | – | – | – | – | FIC [1]: 1.0; FIC [4]: 0.56
7 | CO[C@H]1/C=C/O[C@@]2(C)Oc3c(C)c(O)c4c(O)c(c(/C=N/N5CCN(C)CC5)c(O)c4c3C2=O)NC(=O)/C(C)=C\C=C\[C@H](C)[C@H](O)[C@@H](C)[C@@H](O)[C@@H](C)[C@H](OC(C)=O)[C@@H]1C [Rifampin, rifampicin] | 1 | 0.03 | 0.06 to 0.13 | 0.31 | 1 | 2 | 16 | 0.46 | 0.75 | 0.46 | 0.25 | 1 | 8 to 16 | 0.38 | 4 | 0.25 | 2 | 0.46 | 8 | 2 | Antibiotic MIC in presence of OAK (E. coli U-16329; +1.7 μg/ml C12K-7α8 (¼ MIC)): 4 µg/mL; MIC (E. coli 14182): 16 µg/mL
